Measurements reported in patent publication US5084082A, “Soybean plants with dominant selectable trait for herbicide resistance” (priority 1990, dated 1992).

Experiments:
Type in all cases: in vivo, soybean
mutant line W20 = experiment: Test B postemergence cross resistance test; settings: Glycine max, post-emergence; for percent crop injury at 16 g/ha: W20, 16 g/ha postemergence; for percent crop injury at 64 g/ha: W20, 64 g/ha postemergence
Text: (§1) In the second postemergence test, six true-breeding resistant mutant lines (W4, W17, W19, W20, W23, and W28) were compared to Williams 82 for cross resistance to a broad range of ALS inhibitors including eight sulfonylureas and three imidazolinones. Two seeds were planted in each 10 cm pot and allowed to grow to the second trifoliolate stage. Pots were not thinned back if both plants were at the proper stage. For each of 11 herbicides, two rates (Table VII) were selected based on previous data: the low rate was expected to cause significant injury (but not death) to Williams 82 and the high rate was expected to severely injure or kill Williams 82. All but a few line x rate treatments were replicated twice.
(§2) In both postemergence tests, plants were returned to the greenhouse after treatment and provided with ample light, moisture, and nutrients to support healthy plant growth. Two to three ratings per pot were recorded over a three-week period and averaged to obtain a single value for each pot For each herbicide, analysis of variance on injury ratings was performed separately. Fisher's least significant difference (LSD) was used to determine the significance of line mean differences at each herbicide rate using the 95% level of confidence.

mutant W19 = experiment: Test A postemergence herbicide spray, greenhouse pots
Text: (§3) In the first post-emergence test, two true-breeding resistant mutant lines, W19 and W20, were compared to previously isolated tolerant mutants and wild-type Williams 82. Eighteen pots (20 cm diameter) of each soybean line (2 seeds per pot) were planted using a standard sterile potting mix. When the seedlings reached the second trifoliolate stage, plants were thinned back to one plant per pot. Each pot was then sprayed with a specific herbicide treatment using a conveyor belt spray apparatus to emulate field application. The nine different herbicide treatments included one rate (8 g/ha) of Compound 1 and two rates (8 and 32 g/ha) each of four other sulfonylurea herbicides (Compounds 2,3,7 and 8) (see Table VI) using a factorial treatment design with 2 replications.
as §2, with “confidence. […]” for “confidence.”

mutant W20 [1] = experiment: as above
Text: as §3
as §2, with “confidence. […]” for “confidence.”

Mutant 1-184A = experiment: as above
Text: as §3
as §2, with “confidence. […]” for “confidence.”

Williams 82 [2] = experiment: as above
Text: as §3
as §2, with “confidence. […]” for “confidence.”

mutant line W28 = experiment: Test B postemergence cross resistance test; settings: Glycine max, post-emergence; for mean % injury to soybean at 16 g/ha: W28, 16 g/ha postemergence; for mean % injury to soybean at 64 g/ha: W28, 64 g/ha postemergence
Text: as §1
as §2, with “confidence. […]” for “confidence.”

mutant line W17 = experiment: Test B postemergence cross resistance test; settings: Glycine max, post-emergence; for soybean crop injury (%) at 16 g/ha: W17, 16 g/ha postemergence; for soybean crop injury (%) at 64 g/ha: W17, 64 g/ha postemergence
Text: as §1
as §2, with “confidence. […]” for “confidence.”

mutant line W23 = experiment: Test B postemergence cross resistance test; settings: Glycine max, post-emergence; for percent soybean injury at 16 g/ha: W23, 16 g/ha postemergence; for percent soybean injury at 64 g/ha: W23, 64 g/ha postemergence
Text: as §1
as §2, with “confidence. […]” for “confidence.”

mutant line W4 = experiment: Test B postemergence cross resistance test; settings: Glycine max, post-emergence; for % crop injury at 16 g/ha: W4, 16 g/ha postemergence; for % crop injury at 64 g/ha: W4, 64 g/ha postemergence
Text: as §1
as §2, with “confidence. […]” for “confidence.”

Williams 82 [3] = experiment: Test B postemergence cross resistance test; settings: Glycine max, post-emergence
Text: as §1
as §2, with “confidence. […]” for “confidence.”

mutant line W19 = experiment: Test B postemergence cross resistance test; settings: Glycine max, post-emergence; for percent soybean crop injury at 16 g/ha: W19, 16 g/ha postemergence; for percent soybean crop injury at 64 g/ha: W19, 64 g/ha postemergence
Text: as §1
as §2, with “confidence. […]” for “confidence.”

Williams 82 [4] = experiment: Test C preemergence (soil) sulfonylurea application; settings: 19 days after treatment
Text: (§4) W20, a line homozygous for a dominant sulfonylurea-resistance mutation, was compared to Williams 82 in terms of response to preemergence application of three sulfonylurea herbicides. The experimental unit consisted of a single 18 cm pot filled with soil (Sassafras loamy sand with 0.8% organic matter and pH 6.7) in which 6 seeds of a given soybean line were planted 2 cm deep. After planting, each pot was sprayed (using a conveyor belt spray apparatus to emulate field application) with one of 22 different treatments including a check sprayed with AGWT (90% acetone, 4% glycerol, 4% water, 2% Tween-20), and 21 different herbicide treatments using AGWT as a carrier. The herbicide treatments included 7 different concentrations (Table IX) each of three sulfonyl-ureas: Compound 5, Compound 4, and Compound 1. Each herbicide x line treatment was replicated three times. After herbicide treatment, pots were transferred to a greenhouse and arranged in a randomized complete block design. Nineteen days after treatment, each pot was rated visually for herbicide injury using the scale described previously. For each herbicide, analysis of variance on injury ratings was performed separately. Fisher's least significant difference (LSD) was used to determine the significance of line mean differences at each rate using the 95% level of confidence.

W20 = experiment: as above; settings: 19 days after treatment
Text: as §4

mutant W20 [5] = experiment: Postemergence herbicide spray test of W4-4 (Table VII-A); settings: two weeks after treatment
Experimental: (§5) To investigate this hypothesis, a postemergence herbicide spray test was conducted to compare the reaction of W4-4 to both W20 and wild-type Williams. The applicant was particularly interested in the resistance of W4-4 to herbicide treatments that were injurious to both Williams and W20 in a previous test (Table VII). […] Twenty-four plants each of W4-4, W20, and Williams were planted in separate 10 cm pots and allowed to grow to the second trifoliolate stage. Each pot constituted a single experimental unit receiving a single herbicide treatment. Herbicide treatments (Table VIIA) were applied as described for the first postemergence test and were replicated twice. Control plants were sprayed with the spray carrier solution only (water with 0.25% X77 surfactant). At two weeks after treatment, each plant was rated for % herbicide injury as described in Table VIII. Analysis of variance on injury ratings was performed separately for each herbicide to calculate treatment means and standard errors. Fisher's least significant difference (LSD) was used to determine the significance of line means differences at each herbicide rate using the 95% level of confidence. […]

Mutant W4-4 = experiment: as above; settings: two weeks after treatment
Experimental: as §5

Williams 82 [6] = experiment: as above; settings: two weeks after treatment
Experimental: as §5

COC(=O)c1sccc1S(=O)(=O)NC(=O)Nc1nc(C)nc(OC)n1 [Compound 2, Methyl 3-[[[[(4-methoxy-6-methyl-1,3,5-triazine-2-yl)amino]carbonyl]amino]sulfonyl]-2-thiophenecarboxylate]
percent crop injury at 16 g/ha (mutant line W20): 5%
percent crop injury at 64 g/ha (mutant line W20): 5%
mean % injury (mutant W19; W19, 8 g/ha postemergence): 0%
mean % injury (mutant W19; W19, 32 g/ha postemergence): 7%
mean % injury (mutant W20 [1]; W20, 8 g/ha postemergence): 0%
mean % injury (mutant W20 [1]; W20, 32 g/ha postemergence): 6%
mean % injury (Mutant 1-184A; 8 g/ha postemergence): 13%
mean % injury (Mutant 1-184A; 32 g/ha postemergence): 58%
mean % injury (Williams 82 [2]; WM 82, 8 g/ha postemergence): 13%
mean % injury (Williams 82 [2]; WM 82, 32 g/ha postemergence): 63%
mean % injury to soybean at 16 g/ha (mutant line W28): 0%
mean % injury to soybean at 64 g/ha (mutant line W28): 5%
soybean crop injury (%) at 16 g/ha (mutant line W17): 0%
soybean crop injury (%) at 64 g/ha (mutant line W17): 3%
percent soybean injury at 16 g/ha (mutant line W23): 0%
percent soybean injury at 64 g/ha (mutant line W23): 8%
% crop injury at 16 g/ha (mutant line W4): 0%
% crop injury at 64 g/ha (mutant line W4): 5%
soybean crop injury at 16 g/ha (Williams 82 [3]; Wm 82, 16 g/ha postemergence): 70%
soybean crop injury at 64 g/ha (Williams 82 [3]; Wm 82, 64 g/ha postemergence): 91%
percent soybean crop injury at 16 g/ha (mutant line W19): 0%
percent soybean crop injury at 64 g/ha (mutant line W19): 6%

COC(=O)c1ccccc1S(=O)(=O)NC(=O)Nc1nc(C)cc(C)n1 [Compound 4, Methyl 2-[[[[(4,6-dimethyl-2-pyrimidinyl)amino]carbonyl]amino]sulfonyl]benzoate]
percent crop injury at 0.5 g/ha (mutant line W20; W20, 0.5 g/ha postemergence): 0%
percent crop injury at 2 g/ha (mutant line W20; W20, 2 g/ha postemergence): 6%
% Injury (Williams 82 [4]; WM 82, 0.3 g/ha preemergence): 33%
% Injury (Williams 82 [4]; WM 82, 1 g/ha preemergence): 55%
% Injury (Williams 82 [4]; WM 82, 3 g/ha preemergence): 88%
% Injury (Williams 82 [4]; WM 82, 10 g/ha preemergence): 97%
% Injury (Williams 82 [4]; WM 82, 30 g/ha preemergence): 98%
% Injury (Williams 82 [4]; WM 82, 100 g/ha preemergence): 100%
% Injury (Williams 82 [4]; WM 82, 300 g/ha preemergence): 100%
% Injury (W20; W20, 0.3 g/ha preemergence): 0%
% Injury (W20; W20, 1 g/ha preemergence): 0%
% Injury (W20; W20, 3 g/ha preemergence): 0%
% Injury (W20; W20, 10 g/ha preemergence): 17%
% Injury (W20; W20, 30 g/ha preemergence): 68%
% Injury (W20; W20, 100 g/ha preemergence): 90%
% Injury (W20; W20, 300 g/ha preemergence): 95%
mean % injury to soybean at 0.5 g/ha (mutant line W28; W28, 0.5 g/ha postemergence): 0%
mean % injury to soybean at 2 g/ha (mutant line W28; W28, 2 g/ha postemergence): 18%
soybean crop injury (%) at 0.5 g/ha (mutant line W17; W17, 0.5 g/ha postemergence): 3%
soybean crop injury (%) at 2 g/ha (mutant line W17; W17, 2 g/ha postemergence): 0%
percent soybean injury at 0.5 g/ha (mutant line W23; W23, 0.5 g/ha postemergence): 8%
percent soybean injury at 2 g/ha (mutant line W23; W23, 2 g/ha postemergence): 11%
% crop injury at 0.5 g/ha (mutant line W4; W4, 0.5 g/ha postemergence): 10%
% crop injury at 2 g/ha (mutant line W4; W4, 2 g/ha postemergence): 8%
pest or weed control at 0.5 g/ha (Williams 82 [3]; read-out: mean % injury): 58%
pest or weed control at 2 g/ha (Williams 82 [3]; read-out: mean % injury): 95%
percent soybean crop injury at 0.5 g/ha (mutant line W19; W19, 0.5 g/ha postemergence): 3%
percent soybean crop injury at 2 g/ha (mutant line W19; W19, 2 g/ha postemergence): 18%

CCOC(=O)c1ccccc1S(=O)(=O)NC(=O)Nc1nc(Cl)cc(OC)n1 [Compound 5, Ethyl 2[[[[(4-chloro-6-methoxy-2-pyrimidinyl)amino]carbonyl]amino]sulfonyl]benzoate]
percent crop injury at 16 g/ha (mutant line W20): 0%
percent crop injury at 64 g/ha (mutant line W20): 0%
% Injury (Williams 82 [4]; WM 82, 1 g/ha preemergence): 0%
% Injury (Williams 82 [4]; WM 82, 3 g/ha preemergence): 0%
% Injury (Williams 82 [4]; WM 82, 10 g/ha preemergence): 0%
% Injury (Williams 82 [4]; WM 82, 30 g/ha preemergence): 15%
% Injury (Williams 82 [4]; WM 82, 100 g/ha preemergence): 47%
% Injury (Williams 82 [4]; WM 82, 300 g/ha preemergence): 68%
% Injury (Williams 82 [4]; WM 82, 1000 g/ha preemergence): 92%
% Injury (W20; W20, 1 g/ha preemergence): 0%
% Injury (W20; W20, 3 g/ha preemergence): 0%
% Injury (W20; W20, 10 g/ha preemergence): 0%
% Injury (W20; W20, 30 g/ha preemergence): 3%
% Injury (W20; W20, 100 g/ha preemergence): 10%
% Injury (W20; W20, 300 g/ha preemergence): 15%
% Injury (W20; W20, 1000 g/ha preemergence): 35%
mean % injury to soybean at 16 g/ha (mutant line W28): 0%
mean % injury to soybean at 64 g/ha (mutant line W28): 0%
soybean crop injury (%) at 16 g/ha (mutant line W17): 0%
soybean crop injury (%) at 64 g/ha (mutant line W17): 0%
percent soybean injury at 16 g/ha (mutant line W23): 0%
percent soybean injury at 64 g/ha (mutant line W23): 10%
% crop injury at 16 g/ha (mutant line W4): 6%
% crop injury at 64 g/ha (mutant line W4): 0%
pest or weed control at 16 g/ha (Williams 82 [3]; read-out: mean % injury): 40%
pest or weed control at 64 g/ha (Williams 82 [3]; read-out: mean % injury): 58%
percent soybean crop injury at 16 g/ha (mutant line W19): 0%
percent soybean crop injury at 64 g/ha (mutant line W19): 20%

COc1cc(OC)nc(NC(=O)NS(=O)(=O)c2ncccc2C(=O)N(C)C)n1 [Compound 6, 2-[[[[(4,6-dimethoxy-2-pyrimidinyl)amino]carbonyl]amino]sulfonyl]N,N-dimethyl-3-pyridinecarboxamide]
percent crop injury at 16 g/ha (mutant line W20): 3%
percent crop injury at 64 g/ha (mutant line W20): 38%
mean % injury (mutant W20 [5]; W20, 64 g/ha postemergence): 10%
mean % injury (mutant W20 [5]; W20, 125 g/ha postemergence): 28%
mean % injury (Mutant W4-4; W4-4, 64 g/ha postemergence): 0%
mean % injury (Mutant W4-4; W4-4, 125 g/ha postemergence): 8%
mean % injury (Williams 82 [6]; WM82, 64 g/ha postemergence): 60%
mean % injury (Williams 82 [6]; WM82, 125 g/ha postemergence): 68%
mean % injury to soybean at 16 g/ha (mutant line W28): 0%
mean % injury to soybean at 64 g/ha (mutant line W28): 45%
soybean crop injury (%) at 16 g/ha (mutant line W17): 0%
soybean crop injury (%) at 64 g/ha (mutant line W17): 40%
percent soybean injury at 16 g/ha (mutant line W23): 5%
percent soybean injury at 64 g/ha (mutant line W23): 54%
% crop injury at 16 g/ha (mutant line W4): 4%
% crop injury at 64 g/ha (mutant line W4): 43%
pest or weed control at 16 g/ha (Williams 82 [3]; read-out: mean % injury): 25%
pest or weed control at 64 g/ha (Williams 82 [3]; read-out: mean % injury): 66%
percent soybean crop injury at 16 g/ha (mutant line W19): 8%
percent soybean crop injury at 64 g/ha (mutant line W19): 48%
